The values that follow come from paper PMC5111430 (ACS chemical biology, 2016).

In data set [1] the target is Recombinant human Hsp70 and DnaJA2 (Homo sapiens, UniProt P0DMV8). As to the kind of experiment: Hsp70 ATPase malachite green assay. The format is biochemical. As to conditions: 1 µM Hsp70, 1 µM DnaJA2, 1 mM ATP, 30 min preincubation, 3 h.
Another data set deals with HEK293T cells. As to the kind of experiment: LDH cytotoxicity assay. The format is cell-based, human. As to conditions: increasing concentrations, 24 h, relative to DMSO.
The test system of another data set is WT4R0N tau. It counts as cell-based, human. As to conditions: HEK293T, transient WT4R0N tau, 24 h; for effect on tau levels (tau aggregation inhibitor scaffolds): increasing concentrations; for effect on tau levels (Hsp70 inhibitor scaffolds): increasing concentrations up to 30 µM.
The target of data set [2] is 4R0N human recombinant tau (Homo sapiens, UniProt P10636, P618L). As to the kind of experiment: In vitro tau aggregation, thioflavin T fluorescence assay. As to conditions: for effect on tau aggregation levels in vitro: ThT fluorescence, heparin-induced, 24 h. The format is biochemical.
Sequence of 4R0N human recombinant tau (P10636 1-383 isoform P10636-6 P243L): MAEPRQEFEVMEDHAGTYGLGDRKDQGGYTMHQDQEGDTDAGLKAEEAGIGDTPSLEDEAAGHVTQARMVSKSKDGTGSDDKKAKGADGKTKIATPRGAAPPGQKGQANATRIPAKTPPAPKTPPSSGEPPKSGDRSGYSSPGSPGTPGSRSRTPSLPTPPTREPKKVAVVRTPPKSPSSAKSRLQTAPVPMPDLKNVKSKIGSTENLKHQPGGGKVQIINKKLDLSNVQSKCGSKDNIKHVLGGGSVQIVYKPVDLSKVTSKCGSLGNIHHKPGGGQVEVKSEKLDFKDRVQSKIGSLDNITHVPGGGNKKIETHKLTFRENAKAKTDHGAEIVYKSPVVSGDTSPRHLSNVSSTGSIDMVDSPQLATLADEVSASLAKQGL
For a further data set, the target named is human recombinant tau (Homo sapiens, UniProt P10636, P618L). Briefly: Nondenaturing gel electrophoresis of ThT samples, high molecular weight tau. The format is biochemical. As to conditions: ThT samples incubated with 30 µM compound.
Sequence of human recombinant tau (P10636 1-383 isoform P10636-6 P243L): as above
In data set [3] the target is recombinant human P301L tau (Homo sapiens, UniProt P10636, P618L). As to the kind of experiment: Hydrogen peroxide production assay. The format is biochemical. As to conditions: recombinant tau (10 µM) with 30 µM compound vs vehicle.
Sequence of recombinant human P301L tau (P10636 1-383 isoform P10636-6 P243L): as above

Sequence of Recombinant human Hsp70 and DnaJA2 (P0DMV8 whole entry): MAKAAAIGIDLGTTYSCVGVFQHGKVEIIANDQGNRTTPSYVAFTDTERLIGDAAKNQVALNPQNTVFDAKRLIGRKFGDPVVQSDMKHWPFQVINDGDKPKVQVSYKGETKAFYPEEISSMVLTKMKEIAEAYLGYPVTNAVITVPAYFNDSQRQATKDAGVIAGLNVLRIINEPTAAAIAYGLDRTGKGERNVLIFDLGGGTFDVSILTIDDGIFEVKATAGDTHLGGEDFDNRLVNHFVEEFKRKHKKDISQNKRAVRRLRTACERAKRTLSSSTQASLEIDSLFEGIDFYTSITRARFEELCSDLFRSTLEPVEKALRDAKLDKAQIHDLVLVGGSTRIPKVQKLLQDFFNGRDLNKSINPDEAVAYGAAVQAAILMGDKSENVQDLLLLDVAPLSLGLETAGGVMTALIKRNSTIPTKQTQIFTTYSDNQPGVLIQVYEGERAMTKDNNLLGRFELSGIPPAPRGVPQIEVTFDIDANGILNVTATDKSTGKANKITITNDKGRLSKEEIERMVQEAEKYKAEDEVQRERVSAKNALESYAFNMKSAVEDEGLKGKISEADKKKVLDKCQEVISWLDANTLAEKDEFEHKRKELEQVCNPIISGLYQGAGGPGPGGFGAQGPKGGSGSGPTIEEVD

Turning to “2-((Z)-5-((5-(3- chlorophenyl)furan -2-yl)methylene)-4-oxo-2- thioxothiazolidin-3- yl)ethanoic acid [rhodanine]”, the “Hsp70 ATPase activity” value in data set [1] was “inhibited Hsp70 ATPase activity”.
Take 2-Phenylethynesulfonamide: the LDH cytotoxicity entry in the data set with HEK293T cells is “high toxicity relative to the other compounds”.
Turning to `Nc1scc2c(C(=O)NC3CC3)nn(-c3ccc(Cl)cc3)c(=O)c12` [ATPZ, 5-amino-3-(4-chlorophenyl)-N-cyclopropyl-4-oxo-3,4-dihydrothieno[3,4-d]pyridazine-1-carboxamide], the “effect on tau levels (tau aggregation inhibitor scaffolds)” value in the data set with WT4R0N tau is recorded as “did not lead to tau lowering”.
In the case of `N#Cc1ccc(COC[C@H]2O[C@@H](n3c(NCc4ccc(Cl)c(Cl)c4)nc4c(N)ncnc43)[C@H](O)[C@@H]2O)cc1` [adenosine analog, 5'-O-[(4-Cyanophenyl)methyl]-8-[[(3,4-dichlorophenyl)methyl]amino]-adenosine], the “effect on tau aggregation levels in vitro” value in data set [2] is listed as “increased tau aggregation levels”. The “effect on tau levels (Hsp70 inhibitor scaffolds)” value in the data set with WT4R0N tau is “increased tau levels”.
As for `O=C1c2ccc(O)c(O)c2C(=O)c2c(O)ccc(O)c21` [anthraquinone, 1,2,5,8-Tetrahydroxy-9,10-anthraquinone, 1,2,5,8-Tetrahydroxyanthraquinone], in the data set with WT4R0N tau (30 µM), the “effect on tau levels at 30 µM” value is reported as “effectively lowered tau levels”. In addition, in the data set with WT4R0N tau, the “effect on tau levels (tau aggregation inhibitor scaffolds)” value was “lowered tau levels”.
In general, IC50 refers to the concentration needed to halve the response being measured. In the case of `CC1=C(C(=O)OCc2ccccc2)C(c2ccc(-c3ccccc3)cc2)NC(=O)N1CCCCCC(=O)O` (centres unmarked) [dihydropyrimidine, 4-[1,1'-Biphenyl]-4-yl-3,4-dihydro-6-methyl-2-oxo-5-[(phenylmethoxy)carbonyl]-1(2H)-pyrimidinehexanoic acid], the IC50 in data set [2] was determined as 22.7 µM.
In the case of `CN(C)c1ccc2nc3ccc(N(C)C)cc3[s+]c2c1.[Cl-]` [phenothiazine, 3,7-bis(Dimethylamino)phenazat hionium chloride], the “effect on high molecular weight tau” value on human recombinant tau is listed as “most potently reduced high molecular weight tau”.
For the compound `CCCn1c(NC(=O)[C@H]2CCCN(c3cnccn3)C2)nc2ccccc21` [piperidine-3-carboxamide, (S)-N-(1-propyl-1H-benzimidazol-2-yl)-1-(2-pyrazinyl)piperidine-3-carboxamide], the “effect on tau aggregation levels in vitro” value in data set [2] is on record as “increased tau aggregation levels”. Also, in the data set with WT4R0N tau, the “effect on tau levels (Hsp70 inhibitor scaffolds)” value is on record as “increased tau levels”.
In the case of `CCn1c(=O)/c(=C2\Sc3cc(Cl)ccc3N2C)s/c1=C\c1scc[n+]1Cc1ccccc1.[Cl-]` [rhodacyanine, 3-benzyl-2-((Z)-((E)-5-(6-chloro-3-methylbenzo[d]thiazol-2(3H)-ylidene)-3-ethyl-4-oxothiazolidin-2-ylidene)methyl)thiazol-3-ium chloride], at human recombinant tau, the “effect on high molecular weight tau” value was “most potently reduced high molecular weight tau”. In data set [3], the “production of hydrogen peroxide” value was “no significant differences”. For the same compound, the IC50 in data set [2] was found to be 0.813 µM.
